≈ marks a conversion by molar mass, not a printed value.
Key:
Type in all cases: functional
[1] = test system: Streptococcus pyogenes; assay: Antibacterial activity against Mef-mediated macrolide efflux resistant Streptococcus pyogenes by agar microdilution method
[2] = test system: Staphylococcus aureus; assay: Antibacterial activity against constitutively macrolide/lincosamide/streptogramin B-resistant Staphylococcus aureus by agar microdilution method
[3] = test system: Streptococcus pyogenes; assay: Antibacterial activity against erythromycin susceptible Streptococcus pyogenes by agar microdilution method
[4] = test system: Staphylococcus aureus; assay: Antibacterial activity against inducibly macrolide/lincosamide/streptogramin B-resistant Staphylococcus aureus by agar microdilution method
[5] = test system: Haemophilus influenzae; assay: Antibacterial activity against Haemophilus influenzae by agar microdilution method
[6] = test system: Staphylococcus aureus; assay: Antibacterial activity against erythromycin susceptible Staphylococcus aureus by agar microdilution method
[7] = test system: Streptococcus pneumoniae; assay: Antibacterial activity against erythromycin susceptible Streptococcus pneumoniae by agar microdilution method
[8] = test system: Streptococcus pneumoniae; assay: Antibacterial activity against constitutively macrolide/lincosamide/streptogramin B-resistant Streptococcus pneumoniae by agar microdilution method
[9] = test system: Streptococcus pneumoniae; assay: Antibacterial activity against Mef-mediated macrolide efflux resistant Streptococcus pneumoniae by agar microdilution method
[10] = test system: Streptococcus pyogenes; assay: Antibacterial activity against constitutively macrolide/lincosamide/streptogramin B-resistant Streptococcus pyogenes by agar microdilution method

Row | SMILES | MIC [1] [µg/mL] | MIC [2] [µg/mL] | MIC [3] [µg/mL] | MIC [4] [µg/mL] | MIC [5] [µg/mL] | MIC [6] [µg/mL] | MIC [7] [µg/mL] | MIC [8] [µg/mL] | MIC [9] [µg/mL] | MIC [10] [µg/mL]
1 | COC(=O)c1cn(C2CC2)c2cc(N3CCNCC3)c(F)cc2c1=O | > 64 | > 64 | > 64 | > 64 | 16 (≈ 46.3 µM) | > 64 | > 64 | > 64 | > 64 | > 64
2 | C=CCO[C@]1(C)C[C@@H](C)NC(=O)[C@H](C)[C@@H](O)[C@](C)(O)[C@@H](CC)OC(=O)[C@H](C)[C@@H](OC(=O)CCN2CCN(c3cc4c(=O)c(C(=O)O)cn(C5CC5)c4cc3Cl)CC2)[C@H](C)[C@H]1O[C@@H]1O[C@H](C)C[C@H](N(C)C)[C@H]1O | 1 (≈ 0.968 µM) | > 64 | ≤ 0.125 | 0.25 (≈ 0.242 µM) | 4 (≈ 3.87 µM) | ≤ 0.125 | ≤ 0.125 | 4 (≈ 3.87 µM) | 0.5 (≈ 0.484 µM) | 8 (≈ 7.75 µM)
3 | O=C(O)c1cn(C2CC2)c2cc(Cl)c(N3CCNCC3)cc2c1=O | > 64 | > 64 | > 64 | > 64 | > 64 | > 64 | > 64 | > 64 | > 64 | > 64
4 | C=CCO[C@]1(C)C[C@@H](C)NC(=O)[C@H](C)[C@@H](O)[C@](C)(O)[C@@H](CC)OC(=O)[C@H](C)[C@@H](OC(=O)CCN2CCN(c3ccc4c(c3)c(=O)c(C(=O)O)cn4C3CC3)CC2)[C@H](C)[C@H]1O[C@@H]1O[C@H](C)C[C@H](N(C)C)[C@H]1O | 16 (≈ 16 µM) | > 64 | 4 (≈ 4.01 µM) | 8 (≈ 8.01 µM) | 16 (≈ 16 µM) | 4 (≈ 4.01 µM) | 2 (≈ 2 µM) | 16 (≈ 16 µM) | 4 (≈ 4.01 µM) | 32 (≈ 32.1 µM)
5 | C=CCO[C@]1(C)C[C@@H](C)NC(=O)[C@H](C)[C@@H](O)[C@](C)(O)[C@@H](CC)OC(=O)[C@H](C)[C@@H](OC(=O)CCN2CCN(C(=O)c3ccco3)CC2)[C@H](C)[C@H]1O[C@@H]1O[C@H](C)C[C@H](N(C)C)[C@H]1O | 4 (≈ 4.62 µM) | > 64 | 0.5 (≈ 0.578 µM) | 2 (≈ 2.31 µM) | 8 (≈ 9.25 µM) | 2 (≈ 2.31 µM) | 0.5 (≈ 0.578 µM) | > 64 | 4 (≈ 4.62 µM) | > 64
6 | CC[C@H]1OC(=O)[C@H](C)[C@@H](OC(=O)CCNCCNc2cc3c(=O)c(C(=O)O)cn(C4CC4)c3cc2Cl)[C@H](C)[C@@H](O[C@@H]2O[C@H](C)C[C@H](N(C)C)[C@H]2O)[C@](C)(OC/C=C/c2cnc3ccccc3n2)C[C@@H](C)NC(=O)[C@H](C)[C@@H](O)[C@]1(C)O | 1 (≈ 0.881 µM) | > 64 | ≤ 0.125 | 1 (≈ 0.881 µM) | 4 (≈ 3.52 µM) | 0.5 (≈ 0.441 µM) | ≤ 0.125 | 1 (≈ 0.881 µM) | 0.5 (≈ 0.441 µM) | 16 (≈ 14.1 µM)
7 | C=CCO[C@]1(C)C[C@@H](C)NC(=O)[C@H](C)[C@@H](O)[C@](C)(O)[C@@H](CC)OC(=O)[C@H](C)[C@@H](OC(=O)CCNC(C)C(=O)Nc2cnc3ccccc3c2)[C@H](C)[C@H]1O[C@@H]1O[C@H](C)C[C@H](N(C)C)[C@H]1O (stereo not given in full) | 1 (≈ 1.11 µM) | > 64 | ≤ 0.125 | 1 (≈ 1.11 µM) | 4 (≈ 4.44 µM) | 0.5 (≈ 0.555 µM) | ≤ 0.125 | 16 (≈ 17.8 µM) | 0.25 (≈ 0.278 µM) | 8 (≈ 8.89 µM)

— ChEMBL document CHEMBL4041467, “Synthesis of novel 15-membered 8a-azahomoerythromycin A acylides: Consequences of structural modification at the C-3 and C-6 position on antibacterial activity” (Eur J Med Chem, 2017)
